Results as given in PubChem BioAssay AID330 (DTP/NCI, 2004).
Where “and” joins values, the source holds several entries; their conditions need not be identical. Equal entries are not always repeated. Inconclusive results and toxic doses are left out. How the source made its calls: active means survival T/C of 150% or more; inactive means T/C below 125% in these data.

Test system: P388 leukemia ip, CD2F1 mice, survival T/C
Test: NCI In Vivo Anticancer Drug Screen. Data for tumor model P388 Leukemia (intraperitoneal) in CD2F1 (CDF1) mice
Settings: endpoint: median survival time, higher = longer survival
In short: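 Mice carrying the transplanted tumor received test compound or vehicle. Survival was recorded in each group, and the value is the treated-group measurement divided by that of the vehicle-treated control group.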

[1] = dose: 50.0 mg/kg/injection, schedule: Q01DX009 (ip), vehicle: saline
[2] = dose: 100.0 mg/kg/injection, schedule: Q01DX009 (ip), vehicle: saline
[3] = dose: 200.0 mg/kg/injection, schedule: Q01DX009 (ip), vehicle: saline
[4] = dose: 50.0 mg/kg/injection, schedule: Q01DX009 (ip), vehicle: saline with Tween-80
[5] = dose: 100.0 mg/kg/injection, schedule: Q01DX009 (ip), vehicle: saline with Tween-80
[6] = dose: 200.0 mg/kg/injection, schedule: Q01DX009 (ip), vehicle: saline with Tween-80
[7] = dose: 12.5 mg/kg/injection, schedule: Q01DX009 (ip), vehicle: other
[8] = dose: 25.0 mg/kg/injection, schedule: Q01DX009 (ip), vehicle: other
[9] = dose: 50.0 mg/kg/injection, schedule: Q01DX009 (ip), vehicle: other
[10] = dose: 100.0 mg/kg/injection, schedule: Q01DX009 (ip), vehicle: other
[11] = dose: 200.0 mg/kg/injection, schedule: Q01DX009 (ip), vehicle: other
[12] = dose: 100.0 mg/kg/injection, schedule: Q04DX002 (ip), vehicle: saline with Tween-80
[13] = dose: 200.0 mg/kg/injection, schedule: Q04DX002 (ip), vehicle: saline with Tween-80
[14] = dose: 50.0 mg/kg/injection, schedule: Q01DX009 (ip), vehicle: Klucel (hydroxypropylcellulose) (HPC)
[15] = dose: 100.0 mg/kg/injection, schedule: Q01DX009 (ip), vehicle: Klucel (hydroxypropylcellulose) (HPC)
[16] = dose: 200.0 mg/kg/injection, schedule: Q01DX009 (ip), vehicle: Klucel (hydroxypropylcellulose) (HPC)
[17] = dose: 25.0 mg/kg/injection, schedule: Q01DX009 (ip), vehicle: Klucel (hydroxypropylcellulose) (HPC)
[18] = dose: 50.0 mg/kg/injection, schedule: Q01DX005 (ip), vehicle: saline with Tween-80
[19] = dose: 200.0 mg/kg/injection, schedule: Q01DX005 (ip), vehicle: saline with Tween-80
[20] = dose: 60.0 mg/kg/injection, schedule: Q01DX005 (ip), vehicle: saline with Tween-80
[21] = dose: 120.0 mg/kg/injection, schedule: Q01DX005 (ip), vehicle: saline with Tween-80
[22] = dose: 240.0 mg/kg/injection, schedule: Q01DX005 (ip), vehicle: saline with Tween-80
[23] = dose: 25.0 mg/kg/injection, schedule: Q01DX009 (ip), vehicle: saline with Tween-80
[24] = dose: 100.0 mg/kg/injection, schedule: Q01DX005 (ip), vehicle: saline with Tween-80

Measured: T/C

N#Cc1ccc(NN=NCCSCCO)cc1
inactive: dose: 12.5 mg/kg/injection, schedule: Q01DX009 (ip), vehicle: distilled water + alcohol 96 % of control | dose: 25.0 mg/kg/injection, schedule: Q01DX009 (ip), vehicle: distilled water + alcohol 104 % of control | dose: 50.0 mg/kg/injection, schedule: Q01DX009 (ip), vehicle: distilled water + alcohol 104 % of control | dose: 100.0 mg/kg/injection, schedule: Q01DX009 (ip), vehicle: distilled water + alcohol 109 % of control

CC(=O)c1c(O)c2c(=O)n(C)c(C)cc2n(C)c1=O
inactive: dose: 50.0 mg/kg/injection, schedule: Q01DX005 (ip), vehicle: Klucel (hydroxypropylcellulose) (HPC) 100 % of control | dose: 100.0 mg/kg/injection, schedule: Q01DX005 (ip), vehicle: Klucel (hydroxypropylcellulose) (HPC) 100 % of control | dose: 200.0 mg/kg/injection, schedule: Q01DX005 (ip), vehicle: Klucel (hydroxypropylcellulose) (HPC) 98 % of control

CCOC(=O)NCC(C)(c1ccccc1)c1ccccc1
inactive: [1] 87 % of control | [2] 94 % of control | [3] 87 % of control

CC(O)(c1ccccc1)C(CCl)N1CCCCC1 (stereo unspecified)
inactive: [4] 100 % of control | [5] 105 % of control | [6] 105 % of control

COc1cc(O)c(O)cc1C(C)(C)C
inactive: dose: 22.5 mg/kg/injection, schedule: Q01DX005 (ip), vehicle: saline with Tween-80 106 % of control | dose: 45.0 mg/kg/injection, schedule: Q01DX005 (ip), vehicle: saline with Tween-80 110 % of control | dose: 90.0 mg/kg/injection, schedule: Q01DX005 (ip), vehicle: saline with Tween-80 97 % of control

CC1(C)CC(C)(OC(=O)c2ccc([N+](=O)[O-])cc2)N=N1 (stereo unspecified)
inactive: [7] 102 % of control | [8] 97 % of control | [9] 102 % of control | [10] 100 % of control | [11] 101 % of control

Cc1ccc(OC(=O)c2ccc3ccccc3n2)cc1
inactive: [12] 101 % of control | [13] 94 % of control | dose: 400.0 mg/kg/injection, schedule: Q04DX002 (ip), vehicle: saline with Tween-80 94 % of control

COc1ccc(OC)c(N2C(=O)C(=O)C(C(C)=O)C2=O)c1 (stereo unspecified)
inactive: [14] 107 % of control | [15] 101 % of control | [16] 105 % of control

C=C(C)C1CC2(C)C(C)CC(O)CC2C(OC(=O)/C=C(/C)CC)C1O (stereo unspecified)
inactive: dose: 12.5 mg/kg/injection, schedule: Q01DX009 (ip), vehicle: Klucel (hydroxypropylcellulose) (HPC) 97 % of control | [17] 98 % of control | [14] 97 % of control | [15] 97 % of control

O=C1NC(=O)C(=Cc2cc3c(cc2Br)OCO3)C(=O)N1
inactive: [17] 101 % of control | [14] 101 % of control | [4] 114 % of control | [15] 117 % of control | [5] 110 % of control and 124 % of control | dose: 166.0 mg/kg/injection, schedule: Q01DX009 (ip), vehicle: saline with Tween-80 117 % of control | [16] 113 % of control | [6] 96 % of control

CN1c2ccccc2S(=O)(=O)n2c(COc3ccccc3)nnc21
inactive: dose: 12.5 mg/kg/injection, schedule: Q01DX005 (ip), vehicle: saline with Tween-80 97 % of control | dose: 25.0 mg/kg/injection, schedule: Q01DX005 (ip), vehicle: saline with Tween-80 97 % of control | [18] 100 % of control and 91 % of control | [19] 88 % of control

O=S(=O)(O)C(Nc1ccccc1)c1ccccc1 (stereo unspecified)
inactive: [5] 100 % of control | dose: 100.0 mg/kg/injection, schedule: Q04DX003 (ip), vehicle: saline sonified 100 % of control | [6] 109 % of control | dose: 200.0 mg/kg/injection, schedule: Q04DX003 (ip), vehicle: saline sonified 100 % of control | dose: 400.0 mg/kg/injection, schedule: Q01DX009 (ip), vehicle: saline with Tween-80 104 % of control | dose: 400.0 mg/kg/injection, schedule: Q04DX003 (ip), vehicle: saline sonified 100 % of control

CCCCn1c(Cl)c(/C=N\Nc2ccc([N+](=O)[O-])cc2)c2ccccc21
inactive: dose: 25.0 mg/kg/injection, schedule: Q01DX001 (ip), vehicle: saline with Tween-80 86 % of control | dose: 100.0 mg/kg/injection, schedule: Q01DX001 (ip), vehicle: saline with Tween-80 103 % of control and 94 % of control

CC1(C)CC[C@]2(C(=O)O)CC[C@]3(C)C(=CC[C@@H]4[C@@]5(C)C[C@H](O)[C@H](O)[C@@](C)(C(=O)O)[C@@H]5CC[C@]43C)[C@@H]2C1
inactive: dose: 1.1 mg/kg/injection, schedule: Q01DX005 (ip), vehicle: Klucel (hydroxypropylcellulose) (HPC) 91 % of control | dose: 2.12 mg/kg/injection, schedule: Q01DX005 (ip), vehicle: Klucel (hydroxypropylcellulose) (HPC) 89 % of control | dose: 4.25 mg/kg/injection, schedule: Q01DX005 (ip), vehicle: Klucel (hydroxypropylcellulose) (HPC) 100 % of control and 91 % of control | dose: 8.5 mg/kg/injection, schedule: Q01DX005 (ip), vehicle: Klucel (hydroxypropylcellulose) (HPC) 88 % of control and 90 % of control | dose: 17.0 mg/kg/injection, schedule: Q01DX005 (ip), vehicle: Klucel (hydroxypropylcellulose) (HPC) 92 % of control and 93 % of control | dose: 34.0 mg/kg/injection, schedule: Q01DX005 (ip), vehicle: Klucel (hydroxypropylcellulose) (HPC) 87 % of control

CCOC(=O)Nc1ccc(C2SCCN2C(=O)Nc2ccc(Cl)cc2)cc1 (stereo unspecified)
inactive: [20] 100 % of control | [21] 91 % of control | [22] 91 % of control

COc1cc2c(NCCCCCO)ncnc2c(OC)c1OC
inactive: [1] 105 % of control | [2] 105 % of control | [3] 102 % of control

COc1c2occc2c(CSC(=N)N)c2ccc(=O)oc12
inactive: dose: 25.0 mg/kg/injection, schedule: Q01DX001 (ip), vehicle: saline 105 % of control | dose: 50.0 mg/kg/injection, schedule: Q01DX001 (ip), vehicle: saline 100 % of control | dose: 100.0 mg/kg/injection, schedule: Q01DX001 (ip), vehicle: saline 100 % of control

COC(=O)C(CS)NC(=O)CCNC(=O)OCc1ccccc1 (stereo unspecified)
inactive: dose: 25.0 mg/kg/injection, schedule: Q04DX003 (ip), vehicle: sodium bicarbonate 91 % of control | dose: 50.0 mg/kg/injection, schedule: Q04DX003 (ip), vehicle: sodium bicarbonate 87 % of control | dose: 100.0 mg/kg/injection, schedule: Q04DX003 (ip), vehicle: sodium bicarbonate 96 % of control | dose: 200.0 mg/kg/injection, schedule: Q04DX003 (ip), vehicle: sodium bicarbonate 87 % of control | dose: 400.0 mg/kg/injection, schedule: Q04DX003 (ip), vehicle: sodium bicarbonate 91 % of control

O=C1Nc2ccccc2C1(O)Cc1ccccn1 (stereo unspecified)
inactive: [23] 105 % of control | [4] 95 % of control | [5] 107 % of control | [6] 103 % of control

[Cl][Pt+2][Cl].[NH-]c1nc2ccc(Br)cc2s1.[NH-]c1nc2ccc(Br)cc2s1
inactive: [12] 103 % of control | [13] 91 % of control

CCCCCCCCCCCOC(=O)c1ccc(O)cc1
inactive: dose: 12.5 mg/kg/injection, schedule: Q01DX009 (ip), vehicle: saline with Tween-80 98 % of control | [23] 102 % of control | [4] 105 % of control and 106 % of control | [5] 103 % of control

Nc1nc(N)c2c(n1)NCN(O)C2
inactive: [18] 97 % of control | [24] 99 % of control | [19] 100 % of control

COc1ccc(NC(=O)CCC(=O)C(C)C(=O)c2ccccc2)cc1 (stereo unspecified)
inactive: [20] 109 % of control | [21] 114 % of control | [22] 120 % of control

C=CCc1cc2c(cc1C(C)c1ccc(OC)cc1)OCO2 (stereo unspecified)
inactive: [18] 106 % of control | [24] 109 % of control | [19] 117 % of control

COC(=O)Nc1cnc(C=O)c(C)c1-c1ccc(OC)c(OC)c1OCc1ccccc1
inactive: [7] 111 % of control | [8] 119 % of control | [9] 110 % of control | [10] 103 % of control | [11] 117 % of control | dose: 400.0 mg/kg/injection, schedule: Q01DX009 (ip), vehicle: other 90 % of control
